31 molecules from patent US11787785B2 (NOVARTIS AG, priority 2021, dated 2023) can be followed below.

This test has as its target T1, WIZ protein (HiBit-WIZ fusion protein) (Homo sapiens, UniProt O95785+Q96SW2).
T1 construct: expressed in transfected cells
Description: Quantification of WIZ protein levels in HiBit tag fusion protein assay (WIZ HiBit assay in 293T cells). The test is classed as cell-based. The settings on record: for Dmax at 25 µM / remaining activity at 25 µM: HEK-293T, 293T cells; for Dmax at 25 µM: 100 − Amax, read-out: % degradation of WIZ (100 − Amax); for remaining activity at 25 µM: DMSO-normalized, curve-fitted percentage of WIZ-HiBit remaining at 25 uM, read-out: WIZ Amax; for DC50: WIZ HiBit assay in 293T cells, 10-point, 5-fold dose response, highest concentration 25 μM, about 18 hours, read-out: WIZ AC50. The essentials: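 Luminescence after LgBit complementation quantified remaining HiBit-WIZ in lysates of single-copy stable 293T lines. Cells dosed ~18 h at 37 °C with 10-point, 5-fold dilutions (highest 25 μM); DMSO set to 100%, fitted curve gave % remaining at 25 μM (Amax).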
(In general: The HiBiT peptide binds its large partner to form an active luciferase.)

T1 sequence (O95785 whole entry, the tested form may be a part): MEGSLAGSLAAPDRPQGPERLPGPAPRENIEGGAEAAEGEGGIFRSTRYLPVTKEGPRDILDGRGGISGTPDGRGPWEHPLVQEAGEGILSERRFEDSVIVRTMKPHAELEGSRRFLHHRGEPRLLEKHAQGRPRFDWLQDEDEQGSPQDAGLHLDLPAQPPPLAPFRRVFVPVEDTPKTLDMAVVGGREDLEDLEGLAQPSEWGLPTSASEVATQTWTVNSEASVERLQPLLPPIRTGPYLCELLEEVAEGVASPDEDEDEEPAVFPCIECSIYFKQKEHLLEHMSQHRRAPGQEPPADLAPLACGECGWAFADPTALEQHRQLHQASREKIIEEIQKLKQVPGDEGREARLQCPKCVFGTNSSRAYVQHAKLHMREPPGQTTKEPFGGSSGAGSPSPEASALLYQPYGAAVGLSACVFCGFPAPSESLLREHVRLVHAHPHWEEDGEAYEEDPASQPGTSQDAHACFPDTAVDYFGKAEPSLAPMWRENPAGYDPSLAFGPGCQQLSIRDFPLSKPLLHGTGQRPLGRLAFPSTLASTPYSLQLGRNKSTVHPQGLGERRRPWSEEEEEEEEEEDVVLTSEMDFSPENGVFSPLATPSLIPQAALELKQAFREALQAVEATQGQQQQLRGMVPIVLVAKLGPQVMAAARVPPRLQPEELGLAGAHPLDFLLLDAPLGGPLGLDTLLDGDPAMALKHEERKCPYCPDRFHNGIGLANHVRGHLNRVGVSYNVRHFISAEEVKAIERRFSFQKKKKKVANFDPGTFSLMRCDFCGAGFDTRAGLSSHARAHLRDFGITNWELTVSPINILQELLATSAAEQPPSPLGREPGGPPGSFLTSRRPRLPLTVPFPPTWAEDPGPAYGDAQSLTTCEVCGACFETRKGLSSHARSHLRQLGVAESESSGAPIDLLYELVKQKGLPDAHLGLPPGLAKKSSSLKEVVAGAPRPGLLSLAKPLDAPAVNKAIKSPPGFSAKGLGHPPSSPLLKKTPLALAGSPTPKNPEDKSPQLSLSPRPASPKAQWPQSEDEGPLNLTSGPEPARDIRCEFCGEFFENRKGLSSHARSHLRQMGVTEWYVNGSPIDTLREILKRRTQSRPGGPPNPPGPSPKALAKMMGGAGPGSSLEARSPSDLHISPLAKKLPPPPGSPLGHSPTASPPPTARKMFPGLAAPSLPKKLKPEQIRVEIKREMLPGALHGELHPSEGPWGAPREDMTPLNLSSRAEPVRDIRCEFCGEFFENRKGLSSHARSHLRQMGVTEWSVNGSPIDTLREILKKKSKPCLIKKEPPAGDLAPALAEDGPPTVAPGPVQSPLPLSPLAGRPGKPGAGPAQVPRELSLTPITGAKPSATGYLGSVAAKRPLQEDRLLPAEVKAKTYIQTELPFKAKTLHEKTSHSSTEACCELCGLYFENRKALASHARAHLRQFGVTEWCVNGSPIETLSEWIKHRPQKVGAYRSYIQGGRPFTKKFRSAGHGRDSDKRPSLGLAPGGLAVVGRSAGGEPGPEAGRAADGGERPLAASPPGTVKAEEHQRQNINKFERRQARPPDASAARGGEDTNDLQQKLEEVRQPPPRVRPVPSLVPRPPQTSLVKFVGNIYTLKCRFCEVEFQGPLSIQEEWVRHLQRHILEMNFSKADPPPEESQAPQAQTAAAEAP
T1 sequence (Q96SW2 whole entry, the tested form may be a part): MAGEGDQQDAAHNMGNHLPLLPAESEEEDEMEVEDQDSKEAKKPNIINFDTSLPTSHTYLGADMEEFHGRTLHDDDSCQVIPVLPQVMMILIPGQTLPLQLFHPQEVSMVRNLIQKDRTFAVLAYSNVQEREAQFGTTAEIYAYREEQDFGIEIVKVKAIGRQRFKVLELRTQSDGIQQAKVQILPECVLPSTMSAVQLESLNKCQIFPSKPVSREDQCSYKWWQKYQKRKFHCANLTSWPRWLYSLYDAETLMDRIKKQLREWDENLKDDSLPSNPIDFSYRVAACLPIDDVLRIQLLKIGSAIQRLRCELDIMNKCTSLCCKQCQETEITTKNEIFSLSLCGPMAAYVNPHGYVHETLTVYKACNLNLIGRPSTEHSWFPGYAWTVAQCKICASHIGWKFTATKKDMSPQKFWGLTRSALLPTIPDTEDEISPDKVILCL
T1 sequence (Q16531 whole entry partner, the tested form may be a part): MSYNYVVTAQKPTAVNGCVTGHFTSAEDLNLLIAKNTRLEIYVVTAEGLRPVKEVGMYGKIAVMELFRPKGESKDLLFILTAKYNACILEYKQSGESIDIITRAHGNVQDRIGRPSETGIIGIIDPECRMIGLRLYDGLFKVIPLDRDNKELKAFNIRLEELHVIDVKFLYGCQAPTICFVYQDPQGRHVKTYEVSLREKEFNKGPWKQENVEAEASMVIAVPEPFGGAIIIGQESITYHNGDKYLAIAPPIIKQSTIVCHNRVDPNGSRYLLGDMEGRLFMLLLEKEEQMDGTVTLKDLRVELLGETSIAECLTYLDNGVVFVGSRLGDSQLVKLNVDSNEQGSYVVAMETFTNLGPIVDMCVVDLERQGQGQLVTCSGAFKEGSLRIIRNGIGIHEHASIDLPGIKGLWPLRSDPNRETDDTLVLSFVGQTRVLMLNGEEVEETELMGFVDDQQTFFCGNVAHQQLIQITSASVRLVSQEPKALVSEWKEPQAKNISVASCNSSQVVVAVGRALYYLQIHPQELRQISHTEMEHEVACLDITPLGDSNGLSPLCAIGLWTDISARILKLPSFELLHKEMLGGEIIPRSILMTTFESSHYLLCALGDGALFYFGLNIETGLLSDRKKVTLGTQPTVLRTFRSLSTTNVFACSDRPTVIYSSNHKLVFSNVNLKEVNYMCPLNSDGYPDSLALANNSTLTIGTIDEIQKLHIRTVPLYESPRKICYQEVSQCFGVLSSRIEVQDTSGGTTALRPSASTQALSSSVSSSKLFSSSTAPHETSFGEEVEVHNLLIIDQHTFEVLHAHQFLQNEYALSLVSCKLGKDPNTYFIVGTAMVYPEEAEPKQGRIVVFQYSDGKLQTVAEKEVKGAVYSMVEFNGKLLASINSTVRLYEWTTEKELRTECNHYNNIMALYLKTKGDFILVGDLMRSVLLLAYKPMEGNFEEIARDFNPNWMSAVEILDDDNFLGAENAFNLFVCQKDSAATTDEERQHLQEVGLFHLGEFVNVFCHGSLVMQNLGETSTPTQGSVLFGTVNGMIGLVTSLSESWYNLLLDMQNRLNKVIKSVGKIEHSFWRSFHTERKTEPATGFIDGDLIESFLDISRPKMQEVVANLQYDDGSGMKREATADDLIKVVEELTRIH

Turning to `C[C@H]1CN(Cc2ccn3ncc(N4CCC(=O)NC4=O)c3c2)CCN1CC1CCCCCC1` [Example 198, (S)-1-(5-((4-(cycloheptylmethyl)-3-methylpiperazin-1-yl)methyl)pyrazolo[1,5-a]pyridin-3-yl)dihydropyrimidine-2,4(1H,3H)-dione], the Dmax at 25 µM was determined as 87%, the remaining activity at 25 µM worked out at 13% and the DC50 stood at 9 nM.
With `C[C@@H]1CC(CN2CCN(Cc3ccn4ncc(N5CCC(=O)NC5=O)c4c3)C[C@@H]2C)C[C@H](C)O1` (stereo partly drawn) [Example 199, 1-(5-(((3S)-4-(((2R,6S)-2,6-dimethyltetrahydro-2H-pyran-4-yl)methyl)-3-methylpiperazin-1-yl)methyl)pyrazolo[1,5-a]pyridin-3-yl)dihydropyrimidine-2,4(1H,3H)-dione], the Dmax at 25 µM is 86%, the remaining activity at 25 µM was determined as 14% and the DC50 stood at 9 nM.
Turning to `C[C@H]1CN(Cc2ccn3ncc(N4CCC(=O)NC4=O)c3c2)CCN1CC1CCC(C)(C)CC1` [Example 200, (S)-1-(5-((4-((4,4-dimethylcyclohexyl)methyl)-3-methylpiperazin-1-yl)methyl)pyrazolo[1,5-a]pyridin-3-yl)dihydropyrimidine-2,4(1H,3H)-dione], the Dmax at 25 µM amounted to 90%, the remaining activity at 25 µM was found to be 10% and the DC50 was 8 nM.
For `C[C@H]1CN(Cc2ccn3ncc(N4CCC(=O)NC4=O)c3c2)CCN1C[C@H]1CC[C@H](O)CC1` [Example 201, 1-(5-(((S)-4-(((1r,4S)-4-hydroxycyclohexyl)methyl)-3-methylpiperazin-1-yl)methyl)pyrazolo[1,5-a]pyridin-3-yl)dihydropyrimidine-2,4(1H,3H)-dione], in that order: 88%, 12% and 20 nM.
For `C[C@H]1CN(Cc2ccn3ncc(N4CCC(=O)NC4=O)c3c2)CCN1CC1CCOCC1` [Example 202], in that order: 85%, 15% and 5 nM.
As to `CC(C)CCN1CCN(Cc2ccn3ncc(N4CCC(=O)NC4=O)c3c2)C[C@@H]1C` [Example 204], the Dmax at 25 µM is 84%, the remaining activity at 25 µM was determined as 16% and the DC50 stood at 51 nM.
Turning to `C[C@H]1CN(Cc2ccn3ncc(N4CCC(=O)NC4=O)c3c2)CCN1CC1CC(F)(F)C1` [Example 205], the Dmax at 25 µM turned out to be 82%, the remaining activity at 25 µM was 18% and the DC50 was 24 nM.
For `C[C@H]1CN(Cc2ccn3ncc(N4CCC(=O)NC4=O)c3c2)CCN1CCC1CCOCC1` [Example 206], in that order: 78%, 22% and 193 nM.
In the case of `C[C@H]1CN(Cc2ccn3ncc(N4CCC(=O)NC4=O)c3c2)CCN1Cc1cccnc1` [Example 208], the Dmax at 25 µM was determined as 60%, the remaining activity at 25 µM is 40% and the DC50 came to 580 nM.
On to `C[C@H]1CN(Cc2ccn3ncc(N4CCC(=O)NC4=O)c3c2)CCN1CC1CCCO1` (stereo partly drawn) [Example 209], for which the Dmax at 25 µM is 74%, the remaining activity at 25 µM worked out at 26% and the DC50 is 380 nM.
For `CO[C@H]1CC[C@@H](CN2CCN(Cc3ccn4ncc(N5CCC(=O)NC5=O)c4c3)C[C@@H]2C)CC1` [Example 211, 1-(5-(((S)-4-(((1s,4R)-4-methoxycyclohexyl)methyl)-3-methylpiperazin-1-yl)methyl)pyrazolo[1,5-a]pyridin-3-yl)dihydropyrimidine-2,4(1H,3H)-dione], in that order: 86%, 14% and 33 nM.
The matching figures for `C[C@H]1CN(Cc2ccn3ncc(N4CCC(=O)NC4=O)c3c2)CCN1CC1CCCC1` [Example 212]: 84%, 16% and 29 nM.
For `C[C@H]1CN(Cc2ccn3ncc(N4CCC(=O)NC4=O)c3c2)CCN1CC1CCC1` [Example 213, (S)-1-(5-((4-(cyclobutylmethyl)-3-methylpiperazin-1-yl)methyl)pyrazolo[1,5-a]pyridin-3-yl)dihydropyrimidine-2,4(1H,3H)-dione], in that order: 81%, 19% and 48 nM.
For the molecule `C[C@@H]1CN(Cc2ccn3ncc(N4CCC(=O)NC4=O)c3c2)CCN1CC1CCCCC1` [Example 214], the Dmax at 25 µM is 65%, the remaining activity at 25 µM stood at 35% and the DC50 came to 151 nM.
For `C[C@@H]1CN(Cc2ccn3ncc(N4CCC(=O)NC4=O)c3c2)CCN1Cc1cccnc1` [Example 215], in that order: 19%, 81% and 2620 nM.
The matching figures for `CC(C)CN1CCN(Cc2ccn3ncc(N4CCC(=O)NC4=O)c3c2)C[C@H]1C` [Example 216]: 65%, 35% and 89 nM.
The matching figures for `C[C@@H]1CN(Cc2ccn3ncc(N4CCC(=O)NC4=O)c3c2)CCN1CC1CCOCC1` [Example 217]: 75%, 25% and 92 nM.
`C[C@@H]1CN(CC2CCCCC2)CCN1Cc1ccn2ncc(N3CCC(=O)NC3=O)c2c1` [Example 218]: the Dmax at 25 µM came out at 71%, the remaining activity at 25 µM is 29% and the DC50 is 68 nM.
The matching figures for `C[C@@H]1CN(CC2CCOCC2)CCN1Cc1ccn2ncc(N3CCC(=O)NC3=O)c2c1` [Example 219]: 75%, 25% and 212 nM.
For the molecule `CC(C)CN1CCN(Cc2ccn3ncc(N4CCC(=O)NC4=O)c3c2)[C@H](C)C1` [Example 220], the Dmax at 25 µM stood at 66%, the remaining activity at 25 µM amounted to 34% and the DC50 is 133 nM.
As for `C[C@H]1CN(CC2CCCCC2)CCN1Cc1ccn2ncc(N3CCC(=O)NC3=O)c2c1` [Example 221], the Dmax at 25 µM is 54%, the remaining activity at 25 µM was 46% and the DC50 was 318 nM.
For `CC(C)CN1CCN(Cc2ccn3ncc(N4CCC(=O)NC4=O)c3c2)[C@@H](C)C1` [Example 222], in that order: 64%, 36% and 457 nM.
For `C[C@H]1CN(CC2CCOCC2)CCN1Cc1ccn2ncc(N3CCC(=O)NC3=O)c2c1` [Example 223], in that order: 51%, 49% and 877 nM.
For `C[C@H]1CN(CC2CCC2)CCN1Cc1ccn2ncc(N3CCC(=O)NC3=O)c2c1` [Example 224], in that order: 45%, 55% and 854 nM.
As for `C[C@H]1CN(CC2CCCO2)CCN1Cc1ccn2ncc(N3CCC(=O)NC3=O)c2c1` (stereo partly drawn) [Example 225], the Dmax at 25 µM stood at 32%, the remaining activity at 25 µM turned out to be 68% and the DC50 was determined as 1050 nM.
Consider `C[C@H]1CN(CC2CC(F)(F)C2)CCN1Cc1ccn2ncc(N3CCC(=O)NC3=O)c2c1` [Example 226, (S)-1-(5-((4-((3,3-difluorocyclobutyl)methyl)-2-methylpiperazin-1-yl)methyl)pyrazolo[1,5-a]pyridin-3-yl)dihydropyrimidine-2,4(1H,3H)-dione], for which the Dmax at 25 µM worked out at 45%, the remaining activity at 25 µM stood at 55% and the DC50 came to 1230 nM.
Regarding `CC[C@H]1CN(Cc2ccn3ncc(N4CCC(=O)NC4=O)c3c2)CCN1CC1CCOCC1` [Example 227, (S)-1-(5-((3-ethyl-4-((tetrahydro-2H-pyran-4-yl)methyl)piperazin-1-yl)methyl)pyrazolo[1,5-a]pyridin-3-yl)dihydropyrimidine-2,4(1H,3H)-dione], the Dmax at 25 µM turned out to be 60%, the remaining activity at 25 µM was found to be 40% and the DC50 worked out at 956 nM.
The matching figures for `CC[C@H]1CN(Cc2ccn3ncc(N4CCC(=O)NC4=O)c3c2)CCN1CC(C)C` [Example 228, (S)-1-(5-((3-ethyl-4-isobutylpiperazin-1-yl)methyl)pyrazolo[1,5-a]pyridin-3-yl)dihydropyrimidine-2,4(1H,3H)-dione]: 55%, 45% and 704 nM.
Take `CC(C)CN1CCN(Cc2ccn3ncc(N4CCC(=O)NC4=O)c3c2)C[C@@H]1C(C)C` [Example 229, (S)-1-(5-((4-isobutyl-3-isopropylpiperazin-1-yl)methyl)pyrazolo[1,5-a]pyridin-3-yl)dihydropyrimidine-2,4(1H,3H)-dione]: the Dmax at 25 µM came out at 0%, the remaining activity at 25 µM was 100% and the DC50 was > 25000 nM.
Regarding `CC(C)[C@H]1CN(Cc2ccn3ncc(N4CCC(=O)NC4=O)c3c2)CCN1CC1CCOCC1` [Example 230, (S)-1-(5-((3-isopropyl-4-((tetrahydro-2H-pyran-4-yl)methyl)piperazin-1-yl)methyl)pyrazolo[1,5-a]pyridin-3-yl)dihydropyrimidine-2,4(1H,3H)-dione], the Dmax at 25 µM was 0%, the remaining activity at 25 µM worked out at 100% and the DC50 was > 25000 nM.
Take `CC1(C)CN(Cc2ccn3ncc(N4CCC(=O)NC4=O)c3c2)CCN1CC1CCCCC1` [Example 231, 1-(5-((4-(cyclohexylmethyl)-3,3-dimethylpiperazin-1-yl)methyl)pyrazolo[1,5-a]pyridin-3-yl)dihydropyrimidine-2,4(1H,3H)-dione]: the Dmax at 25 µM was 53%, the remaining activity at 25 µM is 47% and the DC50 was determined as 150 nM.
